Values quoted from earlier work in patent publication US20060223182A1, “Device for producing autologous VEGF” (priority 2005, published 2006).
Where two headings read alike, the source gives them in different places.

Columns and labels:
[1] = tested on: human keratinocytes; settings: baseline about 200 pg/ml
[2] = tested on: human macrophages; settings: 0.5 mM H2O2 for about 30 minutes
[3] = tested on: human keratinocytes; settings: human keratinocytes cultured in H2O2, with cycloheximide
[4] = tested on: VSMCs

TNF-α
VEGF production level ([1]; TNF-α 25 ng/ml): about 600 pg/ml

OO [H2O2, hydrogen peroxide]
VEGF production level ([1]; H2O2 250 uM): about 600 pg/ml | VEGF produced per cell [2]: about 2.5 fg VEGF/cell

C[C@@H]1C[C@@H]([C@H](O)CC2CC(=O)NC(=O)C2)C(=O)[C@@H](C)C1 [cycloheximide]
level of mRNA produced by the superinduction relative to mere addition of H2O2 [3]: at least 10 fold

TGF-β: growth factor, obtainable from platelet releasate
increase in steady state levels of VEGF mRNA ([4]; 0.3 ng/ml TGF-β, 4 hours, 21% O2, printed as 'similar increase' to 2.5% O2 alone): 1.5-2 fold | increase in the level of VEGF mRNA ([4]; combined treatment of TGF-β and incubation at 2.5% O2): ~7 fold
